Tested on: Oryzias latipes
Assay: Ichthyotoxicity against Oryzias latipes after 1 hr
Format: organism-based
Conditions: in vivo

SMILES | Activity | LC100 [ppm]
C=C1CC[C@@H]2O[C@@]2(C)CC[C@@H]2/C(=C\C=C\C(C)(C)O)COC(=O)[C@@H]12 | Non-toxic | 
C=C1CC[C@@H]2O[C@@]2(C)CC[C@@H]2/C(=C\CC=C(C)C)COC(=O)[C@@H]12 | Non-toxic | 
C=C1CC/C=C(\C)CC[C@@H]2/C(=C\CC=C(C)C)COC(=O)[C@@H]12 [DEOXYXENIOLIDE B] |  | 15

Source: ChEMBL document CHEMBL1159262, “Bioactive diterpenoids from Octocorallia, 2. Deoxyxeniolide B, a novel ichthyotoxic diterpenoid from the soft coral Xenia elongata” (J Nat Prod, 1995)
